# Structures can show the parent of a compound that is named as a salt.
# How the values were obtained:
# MC38 colon cancer cells = assay: MC38 subcutaneous tumor model in C57BL/6 mice, Embodiment 5; format: in vivo; conditions: for Tumor volume: CBD 100 mg/kg, PAR 5 mg/kg, vitamin E 50 mg/kg; for therapeutic / tumor inhibition effect in words: normal mice, Embodiment 5, comparison between groups
# Procedure: MC38 colon cancer cells were inoculated into 6-week-old female C57BL/6 mice (1×10^6 cells/mouse) to establish a subcutaneous tumor model. After the tumor volume reached 50 mm^3, the mice were grouped and administered with the following pharmaceutical combinations: (1) control group (no drug administration), (2) anti-PD-1 ([…] per time) group, (3) vitamin E(α-tocopherol) (50 mg/kg) group, (4) CBD (100 mg/kg) group, (5) CBD (100 mg/kg)+vitamin E(α-tocopherol) (50 mg/kg) group, (6) PAR (5 mg/kg) group, (7) PAR (5 mg/kg)+vitamin E(α-tocopherol) (50 mg/kg) group, (8) CBD (100 mg/kg)+PAR (5 mg/kg) group, and (9) PAR (5 mg/kg)+CBD (100 mg/kg)+vitamin E(α-tocopherol) (50 mg/kg) group.
# The tumor weight, tumor volume, and mouse body weight were monitored once every 2 days. The tumor volume was calculated as follows: tumor volume (mm^3)=0.5×(length)×(width)^2. The mice were sacrificed 14 days after drug administration, and the tumors were dissected.
# The dissolving mode of the pharmaceutical composition was as follows: the pharmaceutical composition was dissolved in 10% DMSO+corn oil, the mice were gavaged with the pharmaceutical composition at 100 μl/mice, and the mice in the control group were injected with the same volume of the solvent.
# PD-L1 in tumor cells = assay: Expression of PD-L1 in tumor cells with paroxetine hydrochloride; format: cell-based; conditions: no method or data given
# [1] = system: MC38 colorectal cancer cells; assay: MC38 subcutaneous tumor model in C57BL/6 mice, Embodiment 2; format: in vivo; conditions: for Tumor volume: CBD 100 mg/kg, PAR 10 mg/kg, vitamin E 50 mg/kg, thymosin 2 mg/kg
# Procedure: • 1. MC38 colorectal cancer cells were inoculated into 6-week-old female C57BL/6 mice (1×10^6 cells/mouse) to establish a subcutaneous tumor model. After the tumor volume reached 50 mm^3, the mice were grouped and administered according to the following pharmaceutical combinations: (1) control group (no administration), (2) anti-PD-1 ([…]/time) group, (3) anti-CTLA4 ([…]/time) group, (4) CBD (100 mg/kg) group, (5) CBD (100 mg/kg)+anti-CTLA4 ([…]/time) group, (6) PAR (10 mg/kg) group, (7) PAR (10 mg/kg)+anti-CTLA4 ([…]) group, (8) CBD (100 mg/kg)+PAR (10 mg/kg) group, (9) vitamin E(a-tocopherol) (50 mg/kg)+thymosin (2 mg/kg) group, (10) CBD (100 mg/kg)+vitamin E(α-tocopherol) (50 mg/kg)+thymosin (2 mg/kg) group, (11) PAR (10 mg/kg)+vitamin E(α-tocopherol) (50 mg/kg)+thymosin (2 mg/kg), (12) PAR (10 mg/kg)+CBD (100 mg/kg)+vitamin E(α-tocopherol) (50 mg/kg)+thymosin (2 mg/kg) group, (13) CBD (100 mg/kg)+vitamin E(α-tocopherol) (50 mg/kg)+thymosin (2 mg/kg)+anti-CTLA4 ([…]/time) group, (14) PAR (10 mg/kg)+vitamin E(α-tocopherol) (50 mg/kg)+thymosin (2 mg/kg)+anti-CTLA4 ([…]) group, and (15) CBD (100 mg/kg)+PAR (10 mg/kg)+vitamin E(α-tocopherol) (50 mg/kg)+thymosin (2 mg/kg)+anti-CTLA4 ([…]/time) group. The tumor weight and volume, and body weight of the mice were monitored once every 2 days. The tumor volume was calculated as follows: tumor volume (mm^3)=0.5×(length)x(width)^2. The mice were sacrificed 14 days after drug administration, and the tumors were dissected.
# The dissolving mode of the pharmaceutical composition was as follows: the pharmaceutical composition was dissolved in 10% DMSO+corn oil, the mice were gavaged with the pharmaceutical composition at 100 pl/mouse, and the mice in the control group were injected with the same volume of the solvent. • 2. MC38 colorectal cancer cells were inoculated into 6-week-old female nude mice (1×10^6 cells/mouse) to establish a subcutaneous tumor model. After the tumor volume reached 50 mm^3, the mice were grouped and administered according to the following pharmaceutical combinations: (1) control group, (2) CBD (100 mg/kg)+vitamin E(α-tocopherol) (50 mg/kg)+thymosin (2 mg/kg) group, (3) PAR (10 mg/kg)+vitamin E(α-tocopherol) (50 mg/kg)+thymosin (2 mg/kg) group, and (4) PAR (10 mg/kg)+CBD (100 mg/kg)+vitamin E(α-tocopherol) (50 mg/kg)+thymosin (2 mg/kg) group. The tumor weight and volume, and the body weight of the mice were monitored once every 2 days. The tumor volume was calculated as follows: tumor volume (mm^3)=0.5×(length)x(width)^2. The mice were sacrificed 14 days after drug administration, and the tumors were dissected. (II) Experimental Results 1.
Compound,Tumor volume (MC38 colon cancer cells; Day 0),Tumor volume (MC38 colon cancer cells; Day 4),Tumor volume (MC38 colon cancer cells; Day 6),Tumor volume (MC38 colon cancer cells; Day 8),Tumor volume (MC38 colon cancer cells; Day 10),Tumor volume (MC38 colon cancer cells; Day 12),Tumor volume (MC38 colon cancer cells; Day 14),Tumor volume (MC38 colon cancer cells; Day 16),therapeutic / tumor inhibition effect in words (MC38 colon cancer cells),expression of PD-L1 in tumor cells (PD-L1 in tumor cells),Tumor volume ([1]; Day 0),Tumor volume ([1]; Day 2),Tumor volume ([1]; Day 4),Tumor volume ([1]; Day 6),Tumor volume ([1]; Day 8),Tumor volume ([1]; Day 10),Tumor volume ([1]; Day 12),Tumor volume ([1]; Day 14),Tumor volume ([1]; Day 16),"therapeutic / tumor inhibition effect in words ([1]; normal mice, Embodiment 2, comparison between groups)"
"Cc1c(C)c2c(c(C)c1O)CC[C@@](C)(CCC[C@H](C)CCC[C@H](C)CCCC(C)C)O2 [VE, a-tocopherol]",0 mm^3,58.77 mm^3,124.89 mm^3,191.75 mm^3,284.59 mm^3,459.67 mm^3,532.81 mm^3,624.47 mm^3,no significant therapeutic effect,–,–,–,–,–,–,–,–,–,–,–
"Fc1ccc([C@@H]2CCNC[C@H]2COc2ccc3c(c2)OCO3)cc1 [PAR, paroxetine hydrochloride]",0 mm^3,44.74 mm^3,61.50 mm^3,85.83 mm^3,136.25 mm^3,176.62 mm^3,262.06 mm^3,302.90 mm^3,equivalent therapeutic effects,reduces the expression of PD-L1,0 mm^3,43.63 mm^3,68.09 mm^3,83.54 mm^3,177.63 mm^3,263.45 mm^3,393.48 mm^3,510.89 mm^3,608.61 mm^3,equivalent therapeutic effects
